What was measured:
[1] = system: crude enzymes (CEs) of Sphingopyxis sp. USTB-05; assay: Enzymatic biodegradation by crude enzymes (CEs) of Sphingopyxis sp. USTB-05; assay type: in vitro ADME
Experimental: At logarithmic growth phase of the third day, the culture solution of Sphingopyxis sp. USTB-05 was centrifuged at 8,000 r/min for 20 min, and then the supernatant was decanted. The pelleted cells were washed three times with 50 mmol/L phosphate buffer solution (PBS, pH 7.0). The harvested cells were resuspended in 20 mL PBS and disrupted using an ultrasonic disruptor with an output power of 600 W for 15 min at 4°C. The cell debris was removed by centrifugation at 12,000 r/min for 30 min. The supernatant was collected, and after handling by 3500 MWCO dialysis bag small molecules such as Tyr was removed, it was used as CEs in the enzymatic biodegradation of MC-YR and its protein profile was determined using sodium dodecyl sulfate-polyacrylamide gel electrophoresis (SDS-PAGE) on 12% polyacrylamide gel. […].
The total biodegradation reaction volume was 5 mL containing 14.8 mg/L MC-YR and 103.6 mg/L protein in PBS in a 10 mL centrifuge tube. The reaction was at 30°C with the shake rate of 200 r/min. […]
MC-YR and its enzymatic biodegradation products were firstly measured using a HPLC system (Shimadzu LC-10ATVP, Shimadzu Co., Ltd., Japan) with a ultraviolet (UV) Diode Array Detector at 238 nm and 230 nm using a Agilent TC-C18 column (4.6 mm×250 mm) (Agilent, 1200 series, USA). […]

[2] = system: crude enzymes (CEs) of Sphingopyxis sp. USTB-05; conditions: cited from earlier work
Sphingopyxis sp. USTB-05 = conditions: cited from earlier work

Substance: microcystin-YR [MC-YR]
- average biodegradation rate of MC-YR [1]: 1.5 mg/L per hour
- time to complete removal of MC-YR by CEs ([1]; pH 7): ≤ 10 h

Substance: microcystin-LR [MC-LR]
- time to total removal by CEs of USTB-05 [2]: ≤ 10 h
- time to total removal by USTB-05 (Sphingopyxis sp. USTB-05): ≤ 20 h

Substance: microcystin-RR [MC-RR]
- time to complete biodegradation by Sphingopyxis sp. USTB-05 (Sphingopyxis sp. USTB-05): ≤ 36 h

Source: paper PMC4412663, “Pathway for Biodegrading Microcystin-YR by Sphingopyxis sp. USTB-05” (PLoS ONE, 2015)
